Laboratory results published in patent publication US9018235B2, “Insecticide compositions” (priority 2004, dated 2015).
Where two headings read alike, the source gives them in different places.

Tests used:
Format in all cases: in vivo
Chilo suppressalis = system: Chilo suppressalis
Source text: (§1) When the effect obtained by combination of two kinds of the active compounds exceeds the expected value E as calculated by the below-described equation of Colby et al., the synergistic effect is deemed to exist. E=X+Y−X·Y/100 [Equation 2] wherein • E=the death rate of larvae obtained when the active compounds A and B are used at the dose of m and n, respectively; • X=the death rate of larvae when the active compound A is used at the dose of m; • Y=the death rate of larvae when the active compound B is used at the dose of n.
A test compound was dissolved by adding acetone containing 5% of Tween 20 (tradename) at the rate of 0.1 ml per 1 mg of the test compound, and the insecticide solution prepared by diluting the solution with ion-exchange water to a predetermined concentration was drenched onto the surface of the soil for raising rice seedlings (5 to 6 seedlings/plant as planted in a paper pot) in the 2.5- to 3-leaf stage at the rate of 1 ml per plant. Two days later, the stalks about 2 cm higher above the soil surface were cut and placed in a test tube, into which 10 heads of 3-instar larvae of Chilo suppressalis were released. The test rube was kept in a breeding chamber controlled at a constant temperature (25° C.), and the number of living larvae was counted 4 to 5 days later. Death rate of larvae=(Number of larvae dead)/(Number of larvae tested)×100 [Equation 4]

Plutella xylostella [1] = assay: Insecticidal effect against Plutella xylostella through plant-root soil drenching of cabbage (Test Example 4); conditions: single compound, plant-root drench, 2-instar larvae
Source text: as §1
A test compound was dissolved by adding acetone containing 5% of Tween 20 (tradename) at the rate of 0.1 ml per 1 mg of the test compound, and the solution was diluted with ion-exchange water to a total volume of 3 ml. Each of the insecticide solutions prepared was drenched onto the surface of the plant root soil for a cabbage plant grown in a cell tray (with a soil capacity of 24 ml). Four days later, the above-ground part of the plant was cut and placed in a plastic cup, into which 10 heads of 2-instar larvae of Plutella xylostella were released. The cup was kept in a breeding chamber controlled at a constant temperature (25° C.), and the number of living larvae was counted 4 days later. Death rate of larvae=(Number of larvae dead)/(Number of larvae tested)×100 [Equation 5]

Spodoptera litura [2] = assay: Insecticidal effect against Spodoptera litura by soaking treatment of soybean leaves (Test Example 1); conditions: single compound, 0.03 ppm; soybean leaf soaking; 3-instar larvae; 25° C.
Method: A test compound was dissolved by addition of acetone containing 5% of Tween 20 (tradename) at the rate of 0.1 ml per 1 mg of the test compound, and after the solution is diluted with aqueous 5,000-fold diluted DAIN solution to a predetermined concentration, soybean leaves after complete development of primary leaves were treated through soaking in the insecticide solution for several seconds. After the insecticide solution was dried, four primary leaves were cut off and placed in an ice-cream cup (with a capacity of 180 ml), in which 10 heads of 3-instra larvae of Spodoptera litura were released. The ice-cream cup was kept in a breeding room controlled at a constant temperature (25° C.), and the number of dead larvae was counted three days later. Death rate of larvae=(Number of larvae dead)/(Number of larvae tested)×100 [Equation 1]
as §1

Spodoptera litura [3] = assay: Insecticidal effect against Spodoptera litura through soaking treatment of soybean roots (Test Example 2); conditions: single compound, soybean root soaking, 3-instar larvae
Source text: as §1
A test compound was dissolved by adding acetone containing 5 of Tween 20 (tradename) at the rate of 0.1 ml per 1 mg of the test compound, and the insecticide solution prepared by diluting the solution with ion-exchange water to a predetermined concentration was charged into a light-shielded Erlenmeyer flask (100 ml), into which the root portion of a soybean plant in the stage of development of primary leaves was soaked after being washed with running water to remove soil. Five days after root soaking, two primary leaves were cut off and placed in an ice-cream cup (with a capacity of 180 ml), into which 10 heads of 3-instar larvae were released. The ice-cream cup was kept in a breeding room controlled at a constant temperature (25° C.), and 5 days later, the number of dead larvae was counted. Death rate of larvae=(Number of larvae dead)/(Number of larvae tested)×100 [Equation 3]

Plutella xylostella [4] = assay: Insecticidal effect against Plutella xylostella through soaking treatment of cabbage leaf (Test Example 5); conditions: single compound, amount applied 0.0064 mg/plant (as headed), 2-instar larvae
Source text: as §1
A test compound was dissolved by adding acetone containing 5% of Tween 20 (tradename) at the rate of 0.1 ml per 1 mg of the test compound, and the insecticide solution was prepared by diluting the solution with an aqueous 5.000-fold diluted DAIN solution to a predetermined concentration. A cabbage leaf was cut off at the site of petiole and soaked in the insecticide solution for several seconds. […] The cup was kept in a breeding room controlled at a constant temperature (25° C.), and the number of dead larvae was counted 4 days later. The death rate of larvae was calculated by the following equation, and the results were shown in Table 8: (Death rate of larvae=(Number of larvae dead)/(Number of larvae tested)×100 [Equation 6]

SMILES: CNC(=N[N+](=O)[O-])NCC1CCOC1 (racemic) [Dinotefuran, (RS)-1-methyl-2-nitro-3-(tetrahydro-3-furylmethyl)guanidine]
- Death rate, 5 days later, % (Chilo suppressalis; in vivo): 0%
- Death rate, 4 days later, % (Plutella xylostella [1]; 0.0016 mg/plant): 0%
- Death rate, 4 days later, % (Plutella xylostella [1]; 0.04 mg/plant): 10%

SMILES: CN/C(=N\[N+](=O)[O-])NCc1cnc(Cl)s1 [Clothianidin, (E)-1-(2-chloro-1,3-thiazol-5-ylmethyl)-3-methyl-2-nitroguanidine]
- Death rate, 4 days later, % (Chilo suppressalis; single compound, 0.001 mg/plant, soil drench, rice, 3-instar larvae): 10%
- Death rate, 3 days later, % (Spodoptera litura [2]): 0%
- Death rate, 5 days later, % (Spodoptera litura [3]; 0.00032 ppm): 0%

SMILES: Cc1cccc(C(=O)NC(C)C)c1NC(=O)c1cc(C(F)(F)F)nn1-c1ncccc1Cl [Compound (I-1), 2-[1-(3-chloropyridin-2-yl)-3-trifluoromethylpyrazol-5-ylcarbonylamino]-N-isopropyl-3-methylbenzamide]
- Death rate, 4 days later, % (Chilo suppressalis; single compound, 0.01 mg/plant, soil drench, rice, 3-instar larvae): 30%
- Death rate, 5 days later, % (Spodoptera litura [3]; 0.007 ppm): 55%

SMILES: Cc1cc(Cl)cc(C(=O)NC(C)C)c1NC(=O)c1cc(C(F)(F)F)nn1-c1ncccc1Cl [Compound (I-2), 5-chloro-2-[1-(3-chloropyridin-2-yl)-3-trifluoromethylpyrazol-5-ylcarbonylamino]-N-isopropyl-3-methylbenzamide]
- Death rate, 3 days later, % (Spodoptera litura [2]): 30%
- Death rate, 4 days later, % (Plutella xylostella [1]; 0.0016 mg/plant): 0%

SMILES: Cc1cccc(C(=O)NC(C)C)c1NC(=O)c1cc(Cl)nn1-c1ncccc1Cl [Compound (I-3), 2-[1-(3-chloropyridin-2-yl)-3-chloropyrazol-5-ylcarbonylamino]-N-isopropyl-3-methylbenzamide]
- Death rate, 4 days later, % (Plutella xylostella [1]; 0.04 mg/plant): 50%

SMILES: Cc1cc(Cl)cc(C(=O)NC(C)C)c1NC(=O)c1cc(Cl)nn1-c1ncccc1Cl [Compound (I-4), 5-chloro-2-[1-(3-chloropyridin-2-yl)-3-chloropyrazol-5-ylcarbonylamino]-N-isopropyl-3-methylbenzamide]
- Death rate, 4 days later, % (Plutella xylostella [4]): 15%

SMILES: Cc1cccc(C(=O)NC(C)C)c1NC(=O)c1cc(Br)nn1-c1ncccc1Cl [Compound (I-5), 2-[3-bromo-1-(3-chloropyridin-2-yl)pyrazol-5-ylcarbonylamino]-N-isopropyl-3-methylbenzamide]
- Death rate, 5 days later, % (Chilo suppressalis; single compound, 0.15 mg/plant, soil drench, rice, 3-instar larvae): 5%

SMILES: Cc1cc(Cl)cc(C(=O)NC(C)C)c1NC(=O)c1cc(Br)nn1-c1ncccc1Cl [Compound (I-6), 2-[3-bromo-1-(3-chloropyridin-2-yl)-pyrazol-5-ylcarbonylamino]-5-chloro-N-isopropyl-3-methylbenzamide]
- Death rate, 5 days later, % (Spodoptera litura [3]; 0.00032 ppm): 0%

SMILES: CN1COCN(Cc2cnc(Cl)s2)C1=N[N+](=O)[O-] [Thiamethoxam, 3-(2-chloro-1,3-thiazol-5-yl-methyl)-5-methyl-1,3,5-oxa-diazinan-4-ylidene(nitro)amine]
- Death rate, 5 days later, % (Spodoptera litura [3]; 0.007 ppm): 0%
- Death rate, 4 days later, % (Plutella xylostella [4]): 10%
